Patent US20060258685A1, “Substituted pyrazolopyrimidines, methods for the production thereof, use of the same for controlling pathogenic fungi, and agents containing said compounds” (priority 2003, published 2006)

Tested on: Sphaerotheca fuliginea
Experiment: Activity against mildew on cucumber leaves caused by Sphaerotheca fuliginea, protective application
Assay type: in vivo
Conditions: 250 ppm active compound, sprayed to runoff, cucumber seedlings, assessed after 7 days, untreated plants 90% infected
Description: The active compounds were separately prepared as a stock solution of 0.25% by weight of active compound in acetone or DMSO. 1% by weight of emulsifier Uniperol® EL (wetting agent having emulsifying and dispersing action based on ethoxylated alkylphenols) was added to this solution, and the solution was diluted with water to the desired concentration. Leaves of potted cucumber seedlings of the cultivar “Chinese snake” were, at the cotyledon stage, sprayed to runoff point with an aqueous suspension having the concentration of active compound stated below. 20 hours after the spray coating had dried on, the plants were inoculated with an aqueous spore suspension of mildew of cucumber (Sphaerotheca fuliginea). The plants were then cultivated in a greenhouse at temperatures between 20 and 24° C. and 60 to 80% relative atmospheric humidity for 7 days. The extent of the mildew development was then determined visually in % infection of the cotyledon area.

Question: For CC1CCN(c2c(-c3c(F)cc(F)cc3F)c(Cl)nc3c(Cl)cnn23)CC1 [III-1, 3,5-Dichloro-7-(4-methylpiperidin-1-yl)-6-(2,4,6-trifluorophenyl)-pyrazolo[1,5-a]pyrimidine], which “extent of the mildew development, determined visually in % infection of the cotyledon area” value is on record?
Answer: no infection
